Reference: patent US20210228713A1, “TLR7 PEPTIDE CONJUGATES” (Apros Therapeutics, Inc., priority 2018, published 2021)
Like-named read-outs stand apart in the source and are kept apart here. One block for each compound: values may come before it. Residues, ends and D or L forms follow the SMILES beside them. *: point of attachment. X1 = CCCC[C@@H](CCS(C)(=O)=O)Nc1nc(N)nc(C)c1Cc1cc(CC(=O)*)ccc1OC

Target: T1, human TLR7 (hTLR7) (Homo sapiens, UniProt Q9NYK1)
T1 construct: host or cells: HEK293 (HEK-Blue hTLR7)
T1 sequence (Q9NYK1 27-1049): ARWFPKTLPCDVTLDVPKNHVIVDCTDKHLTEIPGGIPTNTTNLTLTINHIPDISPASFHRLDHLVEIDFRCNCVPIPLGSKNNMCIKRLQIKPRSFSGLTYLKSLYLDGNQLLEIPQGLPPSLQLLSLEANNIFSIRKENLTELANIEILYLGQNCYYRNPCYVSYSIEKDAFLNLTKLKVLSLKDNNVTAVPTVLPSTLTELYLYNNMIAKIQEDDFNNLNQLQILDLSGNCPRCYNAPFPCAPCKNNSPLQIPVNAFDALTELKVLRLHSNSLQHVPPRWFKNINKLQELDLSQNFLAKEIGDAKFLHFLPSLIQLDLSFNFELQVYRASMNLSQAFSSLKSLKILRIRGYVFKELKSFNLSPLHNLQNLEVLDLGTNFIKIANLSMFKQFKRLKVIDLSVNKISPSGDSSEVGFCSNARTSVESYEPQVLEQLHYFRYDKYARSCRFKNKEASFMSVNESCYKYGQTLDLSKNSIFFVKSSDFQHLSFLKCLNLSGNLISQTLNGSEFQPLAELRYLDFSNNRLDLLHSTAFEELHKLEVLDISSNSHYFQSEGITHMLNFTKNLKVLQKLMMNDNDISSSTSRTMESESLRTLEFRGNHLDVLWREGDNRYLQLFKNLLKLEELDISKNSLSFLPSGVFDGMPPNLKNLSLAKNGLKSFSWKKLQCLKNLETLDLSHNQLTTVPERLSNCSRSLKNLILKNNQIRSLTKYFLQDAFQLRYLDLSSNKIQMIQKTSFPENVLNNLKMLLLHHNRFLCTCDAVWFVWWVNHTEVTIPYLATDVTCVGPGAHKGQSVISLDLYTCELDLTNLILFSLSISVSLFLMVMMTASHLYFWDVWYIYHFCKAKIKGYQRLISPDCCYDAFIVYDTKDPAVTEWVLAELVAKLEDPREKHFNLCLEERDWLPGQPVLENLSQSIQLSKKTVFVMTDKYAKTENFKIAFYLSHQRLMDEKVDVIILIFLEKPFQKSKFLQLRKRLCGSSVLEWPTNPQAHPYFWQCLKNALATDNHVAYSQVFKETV
Test: HEK-Blue hTLR7 cell assay (NF-kB/AP-1 driven SEAP reporter)
Format: cell-based
Excerpt: HEK-Blue™ TLR7 cells were purchased from Invivogen (San Diego, Calif.). The following description was taken from the product information sheet.
“HEK-Blue™ hTLR7 cells are designed for studying the stimulation of human TLR7 (hTLR7) by monitoring the activation of NF-kB. HEK-Blue™ hTLR7 cells were obtained by co-transfection of the hTLR7 gene and an optimized secreted embryonic alkaline phosphatase (SEAP) reporter gene into HEK293 cells. The SEAP reporter gene is placed under the control of the IFN-b minimal promoter fused to five NF-kB and AP-1-binding sites. Stimulation with a TLR7 ligand activates NF-kB and AP-1 which induce the production of SEAP, which is detected by the HEK-Blue™ Detection cell culture medium.”
A typical assay protocol involved the following steps:
1. Cells were cultured according to the product information sheet.
2. 10 mM compound stock in DMSO were first diluted to 3 mM and then 3-fold serially diluted using DMSO to afford a 10-pt dilution.
3. 3 μl of the diluted DMSO were added to 57 μl HEK-Blue™ Detection media for a further 20-fold dilution.
4. 10 μl of the diluted compound in assay media were added into 40 μl cell culture (in HEK-Blue™ Detection media) in 384-well plate. Final cell concentration=8,000 cells per well.
5. The plates were incubated at 37° C. in 5% CO2 for 16 h. SEAP was determined using a spectrophotometer at 620-655 nm.

[1] = HEK TLR7 activity of Compound 1-peptide conjugates, read-out: EC50, Peptide - Compound 1 Conjugate
[2] = HEK TLR7 activity of unconjugated (naked) peptides, read-out: EC50, Peptide without Compound 1
[3] = HEK-Blue hTLR7 cells, 16 h incubation, SEAP read at 620-655 nm, read-out: HEK-TLR7 EC50

SMILES: CCCC[C@@H](CCS(C)(=O)=O)Nc1nc(N)nc(C)c1Cc1cc(CC(=O)N[C@@H](CC(N)=O)C(=O)N[C@@H](CCCNC(=N)N)C(=O)N[C@@H](Cc2ccccc2)C(=O)N[C@H](C(=O)N[C@@H](CO)C(=O)N[C@H](C(=O)N[C@@H](Cc2ccccc2)C(=O)N[C@@H](C)C(=O)N[C@@H](CO)C(=O)NCC(=O)N2CCC[C@H]2C(=O)N[C@@H](CO)C(=O)N[C@@H](CCC(N)=O)C(=O)N[C@@H](CCCCN)C(=O)N[C@H](C(=O)N[C@@H](CCC(N)=O)C(=O)N[C@@H](CC(C)C)C(=O)N[C@H](C(=O)N[C@@H](CC(N)=O)C(=O)N[C@@H](CC(N)=O)C(=O)N[C@@H](CC(N)=O)C(=O)NCC(=O)N[C@@H](CO)C(=O)N[C@@H](Cc2c[nH]c3ccccc23)C(=O)N[C@@H](Cc2c[nH]cn2)C(=O)O)C(C)C)[C@@H](C)CC)[C@@H](C)CC)C(C)C)ccc1OC [*AP5] (X1-NRFVSIFASGPSQKIQLVNNNGSWH-OH)
EC50: 150 nM

SMILES: CCCC[C@@H](CCS(C)(=O)=O)Nc1nc(N)nc(C)c1Cc1cc(CC(=O)N[C@@H](CC(C)C)C(=O)N[C@@H](CC(C)C)C(=O)N[C@H](C(=O)N[C@@H](CCCNC(=N)N)C(=O)N[C@H](C(=O)N[C@@H](CC(C)C)C(=O)N[C@H](C(=O)N[C@H](C(=O)N2CCC[C@H]2C(=O)N[C@@H](CCC(N)=O)C(=O)N[C@@H](CO)C(=O)N[C@@H](CC(C)C)C(=O)N[C@@H](CC(=O)O)C(=O)N[C@@H](CO)C(=O)N[C@@H](Cc2c[nH]c3ccccc23)C(=O)N[C@@H](Cc2c[nH]c3ccccc23)C(=O)N[C@H](C(=O)N[C@@H](CO)C(=O)N[C@@H](CC(C)C)C(=O)N[C@@H](CC(N)=O)C(=O)N[C@@H](Cc2ccccc2)C(=O)N[C@@H](CC(C)C)C(=O)NCC(=O)NCC(=O)N[C@@H](CO)C(=O)O)[C@@H](C)O)[C@@H](C)CC)[C@@H](C)O)[C@@H](C)CC)[C@@H](C)O)ccc1OC [*AP9] (X1-LLTRILTIPQSLDSWWTSLNFLGGS-OH)
EC50: 320 nM

SMILES: CCCC[C@@H](CCS(C)(=O)=O)Nc1nc(N)nc(C)c1Cc1cc(CC(=O)N[C@@H](CCC(=O)O)C(=O)N[C@@H](CO)C(=O)N[C@@H](CC(C)C)C(=O)N[C@@H](CCCCN)C(=O)N[C@H](C(=O)N[C@@H](CO)C(=O)N[C@@H](CCC(N)=O)C(=O)N[C@@H](C)C(=O)N[C@H](C(=O)N[C@@H](Cc2c[nH]cn2)C(=O)N[C@@H](C)C(=O)N[C@@H](C)C(=O)N[C@@H](Cc2c[nH]cn2)C(=O)N[C@@H](C)C(=O)N[C@@H](CCC(=O)O)C(=O)N[C@H](C(=O)N[C@@H](CC(N)=O)C(=O)N[C@@H](CCC(=O)O)C(=O)N[C@@H](C)C(=O)NCC(=O)N[C@@H](CCCNC(=N)N)C(=O)N[C@@H](CCC(=O)O)C(=O)N[C@H](C(=O)N[C@H](C(=O)NCC(=O)O)C(C)C)C(C)C)[C@@H](C)CC)C(C)C)[C@@H](C)CC)ccc1OC [*AP10] (X1-ESLKISQAVHAAHAEINEAGREVVG-OH)
EC50 [1]: 210 nM

SMILES: CCCC[C@@H](CCS(C)(=O)=O)Nc1nc(N)nc(C)c1Cc1cc(CC(=O)N[C@@H](CCC(=O)O)C(=O)N[C@@H](CCC(N)=O)C(=O)N[C@@H](CC(C)C)C(=O)N[C@@H](CO)C(=O)N[C@@H](CO)C(=O)N[C@H](C(=O)N[C@@H](CO)C(=O)N[C@@H](CO)C(=O)N[C@@H](Cc2ccccc2)C(=O)N[C@@H](CCC(=O)O)C(=O)N[C@@H](CCCNC(=N)N)C(=O)N[C@@H](Cc2ccccc2)C(=O)N[C@@H](CCC(=O)O)C(=O)N[C@H](C(=O)N[C@@H](Cc2ccccc2)C(=O)N2CCC[C@H]2C(=O)N[C@@H](CCCCN)C(=O)N[C@@H](CCC(=O)O)C(=O)N[C@@H](CO)C(=O)N[C@@H](CO)C(=O)N[C@@H](Cc2c[nH]c3ccccc23)C(=O)N2CCC[C@H]2C(=O)N[C@@H](CC(N)=O)C(=O)N[C@@H](Cc2c[nH]cn2)C(=O)N[C@@H](CC(N)=O)C(=O)O)[C@@H](C)CC)C(C)C)ccc1OC [*AP11] (X1-EQLSSVSSFERFEIFPKESSWPNHN-OH)
EC50 [1]: 300 nM

SMILES: CSCC[C@H](NC(=O)CNC(=O)[C@@H](NC(=O)[C@H](CCCNC(=N)N)NC(=O)[C@@H](NC(=O)[C@H](CC(C)C)NC(=O)[C@H](C)NC(=O)[C@H](CCCNC(=N)N)NC(=O)[C@@H](NC(=O)[C@H](CCCNC(=N)N)NC(=O)[C@H](CCC(N)=O)NC(=O)[C@H](Cc1ccc(O)cc1)NC(=O)[C@@H](NC(=O)[C@@H](NC(=O)[C@H](CC(=O)O)NC(=O)[C@H](CC(N)=O)NC(=O)[C@H](CC(C)C)NC(=O)[C@H](CC(N)=O)NC(=O)[C@H](CO)NC(=O)[C@@H](N)Cc1c[nH]cn1)[C@@H](C)O)[C@@H](C)O)[C@@H](C)O)C(C)C)[C@@H](C)O)C(=O)N[C@@H](CC(=O)O)C(=O)N1CCC[C@H]1C(=O)N[C@@H](CCCNC(=N)N)C(=O)N[C@@H](CCSC)C(=O)N[C@@H](CS)C(=O)O [AP1]
EC50: > 30000 nM

SMILES: CC[C@H](C)[C@H](NC(=O)[C@H](CCCCN)NC(=O)CNC(=O)[C@@H](NC(=O)[C@@H](NC(=O)[C@H](Cc1ccccc1)NC(=O)[C@H](C)NC(=O)[C@H](CCCNC(=N)N)NC(=O)CNC(=O)[C@@H]1CCCN1C(=O)CNC(=O)[C@H](CCCNC(=N)N)NC(=O)[C@H](CCC(N)=O)NC(=O)[C@@H](NC(=O)[C@H](CCCNC(=N)N)NC(=O)[C@@H](NC(=O)[C@H](CO)NC(=O)[C@H](CCCCN)NC(=O)[C@H](CCCNC(=N)N)NC(=O)[C@@H](N)CCCCN)[C@@H](C)CC)[C@@H](C)CC)C(C)C)[C@@H](C)O)C(=O)NCC(=O)N[C@@H](CC(N)=O)C(=O)N[C@@H](CCSC)C(=O)N[C@@H](CCCNC(=N)N)C(=O)N[C@@H](CCC(N)=O)C(=O)O [AP2]
EC50 [2]: > 30000 nM

SMILES: CC[C@H](C)[C@H](NC(=O)[C@H](CC(C)C)NC(=O)[C@@H](NC(=O)[C@H](CC(C)C)NC(=O)[C@H](CC(C)C)NC(=O)[C@H](CC(C)C)NC(=O)CN)C(C)C)C(=O)N[C@@H](Cc1ccc(O)cc1)C(=O)N[C@@H](CC(C)C)C(=O)N[C@@H](Cc1ccc(O)cc1)C(=O)NCC(=O)N1CCC[C@H]1C(=O)N[C@@H](CO)C(=O)N[C@@H](CC(C)C)C(=O)N[C@@H](Cc1ccc(O)cc1)C(=O)N[C@@H](CCCNC(=N)N)C(=O)N[C@@H](CCCNC(=N)N)C(=O)N[C@@H](Cc1ccccc1)C(=O)N[C@@H](Cc1ccccc1)C(=O)N[C@@H](CO)C(=O)N[C@@H](CC(N)=O)C(=O)N[C@@H](CC(=O)O)C(=O)N[C@@H](CS)C(=O)N[C@@H](CS)C(=O)N[C@@H](CO)C(=O)O [AP4] (H-GLLLVLIYLYGPSLYRRFFSNDCCS-OH)
EC50 [2]: > 30000 nM

SMILES: CC[C@H](C)[C@H](NC(=O)[C@H](CCCCN)NC(=O)CNC(=O)[C@@H](NC(=O)[C@@H](NC(=O)[C@@H](NC(=O)[C@H](Cc1ccccc1)NC(=O)[C@H](C)NC(=O)[C@H](CCCNC(=N)N)NC(=O)CNC(=O)[C@@H]1CCCN1C(=O)CNC(=O)[C@H](CCCNC(=N)N)NC(=O)[C@H](CCC(N)=O)NC(=O)[C@@H](NC(=O)[C@H](CCCNC(=N)N)NC(=O)[C@@H](NC(=O)[C@H](CO)NC(=O)[C@H](CCCCN)NC(=O)[C@H](CCCNC(=N)N)NC(=O)[C@@H](N)CCCCN)[C@@H](C)CC)[C@@H](C)CC)C(C)C)[C@@H](C)O)[C@@H](C)CC)C(=O)NCC(=O)N[C@@H](CC(N)=O)C(=O)N[C@@H](CCSC)C(=O)N[C@@H](CCCNC(=N)N)C(=O)O [AP6]
EC50: > 30000 nM

EC50 [3]: 100 nM
SMILES: CCCC[C@@H](CCS(C)(=O)=O)Nc1nc(N)nc(C)c1Cc1cc(CC(=O)O)ccc1OC [Compound 1, (S)-2-(3-((2-amino-4-methyl-6-((1-(methylsulfonyl)heptan-3-yl)amino)pyrimidin-5-yl)methyl)-4-methoxyphenyl)acetic acid]

EC50 [3]: 100 nM
SMILES: CCCC[C@@H](CCS(C)(=O)=O)Nc1nc(N)nc(C)c1Cc1cc(CC(=O)N[C@@H](C)C(=O)O)ccc1OC [Compound 1-alanine conjugate]

EC50 [3]: 100 nM
SMILES: CCCC[C@@H](CCS(C)(=O)=O)Nc1nc(N)nc(C)c1Cc1cc(CC(=O)NCCCC[C@H](NC(C)=O)C(=O)O)ccc1OC [Compound 1-lysine conjugate]
